From PMC5300155, “Biochemical and biophysical investigations of the interaction between human glucokinase and pro-apoptotic BAD” (PLoS ONE, 2017) come the findings set out here.

Bounds are passed on as bounds.

The target of one data set is T1, human pancreatic GCK (Homo sapiens, UniProt P35557).
T1 construct: hexahistidine (N); made in house; host or cells: glucokinase auxotroph BM5340(DE3)
T1 sequence (P35557 1-465): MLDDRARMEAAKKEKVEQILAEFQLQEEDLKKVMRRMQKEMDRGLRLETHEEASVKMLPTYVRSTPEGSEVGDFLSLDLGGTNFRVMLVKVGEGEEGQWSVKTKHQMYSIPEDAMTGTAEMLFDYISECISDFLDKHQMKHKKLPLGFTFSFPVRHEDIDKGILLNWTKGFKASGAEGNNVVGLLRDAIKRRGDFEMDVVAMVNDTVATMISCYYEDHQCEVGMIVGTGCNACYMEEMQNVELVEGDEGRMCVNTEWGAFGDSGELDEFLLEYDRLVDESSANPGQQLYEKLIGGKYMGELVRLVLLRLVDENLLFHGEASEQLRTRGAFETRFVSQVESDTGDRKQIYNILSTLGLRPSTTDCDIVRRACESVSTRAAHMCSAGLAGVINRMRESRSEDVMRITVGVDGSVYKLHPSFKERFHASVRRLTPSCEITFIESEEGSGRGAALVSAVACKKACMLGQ
In words: GCK activity, G6PDH-linked assay (lab's routine assay, 25°C). Type of data set: biochemical.

The target of data set [1] is T2, Bcl-xL (Homo sapiens, UniProt Q07817, DEL45-84).
T2 construct: made in house
T2 sequence (Q07817 with tags, fused parts or gaps DEL45-84): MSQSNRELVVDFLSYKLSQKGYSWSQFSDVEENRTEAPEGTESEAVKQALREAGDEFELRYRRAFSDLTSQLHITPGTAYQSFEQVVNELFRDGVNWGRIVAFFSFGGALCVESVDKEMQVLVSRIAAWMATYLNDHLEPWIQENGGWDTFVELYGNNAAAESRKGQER
Description: Fluorescence polarization competition with f-BH3 for binding to Bcl-xL.

Data set [2] concerns the target T2, Bcl-xL. In words: Analytical ultracentrifugation sedimentation velocity of 1:1 mixture BAD-GST and Bcl-xL. In kind it is binding. The settings on record: 1:1 mixture of BAD-GST and Bcl-xL, 20°C, 50,000 x g, BAD buffer pH 8.5. Here is the method: Sedimentation velocity experiments were conducted with an Optima XLI Ultracentrifuge (Beckman Coulter) using a four-hole rotor with three 420 μL samples in standard double-sector Epon centerpieces equipped with sapphire windows. Absorbance and interference data were collected simultaneously. Size-exclusion purified proteins were concentrated to OD280 nm = 0.3–1.0 prior to centrifugation. For complex formation, proteins were mixed in a 1:1 molar ratio in BAD buffer (0.1 M Tris, 0.1 M KCl, 0.5 M arginine, 2.5 mM CHAPS, 5 mM TCEP, 10% glycerol, pH 8.5) and incubated on ice 30 min prior to the start of the experiment. Experiments were carried out at 20°C and 50,000 x g. Data were analyzed with Ultrascan III software using a minimum of 70 scans per sample for analysis. Van Holde-Weischet analysis was performed to obtain S20,W values.

“NLWAAQRYGRELRRM(p)SDKFVD [pBH3, 21-residue phosphorylated peptide containing the BH3 domain of BAD]”: at human pancreatic GCK (Fig 6B, GCK alone: H = 1.4), the “Hill coefficient H of GCK in presence of pBH3” value is 1.5. Further, at human pancreatic GCK (Fig 6B, GCK alone: K0.5 = 4.6 mM, Hill equation fit), the “K0.5 (glucose) of GCK in presence of pBH3” value is 3.7 mM. On human pancreatic GCK (Fig 6B, GCK alone: kcat = 33.2 s^-1), the “kcat of GCK in presence of pBH3” value was 31.4 s^-1. Also, the “Change in GCK activity, peptide up to 50 μM” value at human pancreatic GCK (peptide concentrations up to 50 μM) is recorded as “no change in GCK activity”. Moreover, the “Effect on kcat, K0.5 or Hill coefficient of GCK (peptide)” value at human pancreatic GCK (peptide up to 5 μM) is reported as “does not impact the kcat, K0.5 or Hill coefficient of human GCK”. In addition, the “Ability to interact with Bcl-xL (in words)” value on Bcl-xL [1] (ITC and fluorescence polarization assays) is “significantly impaired in their ability to interact with Bcl-xL”.

B1: BAD-GST: recombinant human BAD with N-terminal hexahistidine tag and C-terminal GST fusion, TEV consensus sequence between (protein)
chain: MFQIPEFEPSEQEDSSSAERGLGPSPAGDGPSGSGKHHRQAPGLLWDASHQQEQPTSSSHHGGAGAVEIRSRHSSYPAGTEDDEGMGEEPSPFRGRSRSAPPNLWAAQRYGRELRRMSDEFVDSFKKGLPRPKSAGTATQMRQSSSWTRVFQSWWDRNLGRGSSAPSQ
modifications: left off: His6, N-terminal, state not stated | GST, C-terminal, kept
By IC50 is commonly meant the concentration at which inhibition is half-maximal. A low value points to greater potency in that assay. In the case of B1, the “Increase in GCK rate” value in the data set with human pancreatic GCK (0.8 mM glucose, BAD-GST ≥ 2 μM, average of at least three independent BAD preparations) is listed as 10%. Besides, the “Effect on kcat, K0.5 or Hill coefficient of GCK (BAD-GST)” value with human pancreatic GCK (BAD-GST 8 μM, variable glucose) was “does not alter the kcat, K0.5 or Hill coefficient of GCK”. The “Stimulation of GCK activity (in words)” value with human pancreatic GCK (glucose 0.5–1.0 mM) is “small, but statistically significant extent”. For the same molecule, in the data set with human pancreatic GCK (high concentrations of recombinant BAD, glucose well below K0.5), the “Increase in GCK activity (abstract)” value is on record as below 15%. The same molecule displayed an IC50 with Bcl-xL [1] (200 nM f-BH3, 50 nM Bcl-xL, competitor 0–50 μM, room temperature, 15 min) of 0.13 µM. In addition, the Sedimentation coefficient with Bcl-xL [2] was found to be 2.1.
